*1 amine or outer side, *2 acyl side, *3 side chain or, on linkers, in order; H or OH if unused. Where a SMILES comes first, the peptide text is derived from it. Bridges are numbered along the chain shown (N, C = ends). [ ]: non-standard residue; d: D form. The star is where a group is joined. X3 = O=C(O)CN1CCN(CC(=O)O)CCN(CC(=O)NCCCOCCOCCOCCCN*)CCN(CC(=O)O)CC1; Pro(trans-4-NH2) = O=C([C@@H]1C[C@@H](N[*:3])CN1[*:1])[*:2]; DOTA = O=C(O)CN1CCN(CC(=O)O)CCN(CC(=O)*)CCN(CC(=O)O)CC1; Trp(5-Cl) = N[C@@H](Cc1c[nH]c2ccc(Cl)cc12)C(=O)O; Pyridine(2,6-diCH2) = c1cc(C[*:1])nc(C[*:2])c1; Phe(2-Cl) = N[C@@H](Cc1ccccc1Cl)C(=O)O; 1Nal = N[C@@H](Cc1cccc2ccccc12)C(=O)O; mXylylene = c1cc(C[*:1])cc(C[*:2])c1; Hyp = O=C(O)[C@@H]1C[C@@H](O)CN1; Suc = O=C(CCC(=O)[*:2])[*:1]; hLeu = CC(C)CC[C@H](N)C(=O)O; Api = NC1(C(=O)O)CCNCC1; Thp = NC1(C(=O)O)CCOCC1; Aib = CC(C)(N)C(=O)O

12 molecules from US20250296971A1, “GASTRIC INHIBITORY PEPTIDE RECEPTOR LIGANDS” (priority 2021, published 2025) can be followed below.

The assay addresses T1, GIPR (CHO-K1-hGIPR cells) (Homo sapiens, UniProt P48546).
T1 construct: host or cells: CHO-K1
T1 sequence (P48546 22-466): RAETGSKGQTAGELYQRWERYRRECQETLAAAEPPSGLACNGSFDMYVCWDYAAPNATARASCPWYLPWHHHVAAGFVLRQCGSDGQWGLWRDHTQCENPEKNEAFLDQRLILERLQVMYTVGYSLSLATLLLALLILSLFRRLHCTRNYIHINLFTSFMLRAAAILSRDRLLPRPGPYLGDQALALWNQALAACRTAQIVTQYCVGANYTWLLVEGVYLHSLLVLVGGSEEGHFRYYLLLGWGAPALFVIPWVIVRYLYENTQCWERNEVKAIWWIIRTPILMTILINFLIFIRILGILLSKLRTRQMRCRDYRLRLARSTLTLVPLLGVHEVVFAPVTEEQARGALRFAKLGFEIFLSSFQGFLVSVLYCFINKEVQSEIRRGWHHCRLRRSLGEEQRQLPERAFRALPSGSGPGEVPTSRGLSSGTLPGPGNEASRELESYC
The assay can be described thus: FACS binding assay. As to conditions: competition with 20 nM GIP-057, 4° C. for 1 hour, read-out: pIC50 Category (converted). The procedure, abridged: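 Read-out: flow cytometric median fluorescence intensity, APC/Cy5 channel, plotted vs peptide conc.; 4PL fit → EC50/pEC50 or IC50/pIC50. Cells: CHO-K1-hGIPR, Accutase-detached, 500.000/mL in PBS + 1% FCS. Detection: APC-streptavidin 1 μg/mL, 30 min, on ice.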
For orientation: Flow cytometry measures light scatter and fluorescence of single cells or particles in a stream.
With `CC(C)C[C@@H]1NC(=O)C2(CCOCC2)NC(=O)[C@@H](NC(=O)[C@@H](CC(C)C)NC(=O)[C@H](CCC(=O)O)NC(=O)[C@@H]2C[C@@H](O)CN2C(=O)[C@H](Cc2c[nH]c3ccc(Cl)cc23)NC(=O)[C@H](Cc2c[nH]c3ccccc23)NC(=O)[C@H](CC(=O)O)NC(=O)CCC(=O)NCCCOCCOCCOCCCNC(=O)CN2CCN(CC(=O)O)CCN(CC(=O)O)CCN(CC(=O)O)CC2)CSCc2cccc(n2)CSC[C@@H](C(N)=O)NC(=O)[C@H](Cc2ccccc2)NC1=O` [GIP-388, DOTA-Ttds-Asp-Trp-5Clw-Hyp-Glu-leu-[Cys(2Lut)-Thp-Leu-Phe-Cys]-NH2] ({X3-Suc}-DW[Trp(5-Cl)][Hyp]E[dL]C[Thp]LFC-NH2; linker 7-11 via Pyridine(2,6-diCH2)), the IC50 was 10 to 79.4 nM. In the case of `CC(=O)N[C@@H](CC(=O)O)C(=O)N[C@@H](Cc1c[nH]c2ccccc12)C(=O)N[C@@H](Cc1c[nH]c2ccc(Cl)cc12)C(=O)N1C[C@H](O)C[C@H]1C(=O)N[C@@H](CCC(=O)O)C(=O)N[C@H](CC(C)C)C(=O)N[C@H]1CSCc2cccc(n2)CSC[C@@H](C(=O)N[C@H](CCCCNC(=O)CN2CCN(CC(=O)O)CCN(CC(=O)O)CCN(CC(=O)O)CC2)C(N)=O)NC(=O)[C@H](Cc2ccccc2)NC(=O)[C@H](CC(C)C)NC(=O)C2(CCOCC2)NC1=O` [GIP-389, Ac-Asp-Trp-5Clw-Hyp-Glu-leu-[Cys(2Lut)-Thp-Leu-Phe-Cys]-lys (DOTA)-NH2] (Ac-DW[Trp(5-Cl)][Hyp]E[dL]C[Thp]LFC[dK](DOTA)-NH2; linker 7-11 via Pyridine(2,6-diCH2)), the IC50 was 10 to 79.4 nM.

On to `CC[C@H](C)[C@@H]1NC(=O)[C@H](CC(C)C)NC(=O)C2(CCOCC2)NC(=O)[C@@H](NC(=O)[C@@H](CC(C)C)NC(=O)[C@H](CCC(=O)O)NC(=O)[C@@H]2C[C@@H](NC(=O)CN3CCN(CC(=O)O)CCN(CC(=O)O)CCN(CC(=O)O)CC3)CN2C(=O)[C@H](Cc2c[nH]c3ccc(Cl)cc23)NC(=O)[C@H](Cc2ccccc2Cl)NC(=O)[C@H](CC(=O)O)NC(C)=O)CSCc2cccc(n2)CSC[C@@H](C(N)=O)NC1=O` [GIP-390, Ac-Asp-Ocf-5Clw-Tap (DOTA)-Glu-leu-[Cys(2Lut)-Thp-Leu-Ile-Cys]-NH2] (Ac-D[Phe(2-Cl)][Trp(5-Cl)][Pro(trans-4-NH2)](DOTA)E[dL]C[Thp]LIC-NH2; linker 7-11 via Pyridine(2,6-diCH2)), for which the IC50 is 10 to 79.4 nM. On to `CC(=O)N[C@@H](CC(=O)O)C(=O)N[C@@H](Cc1c[nH]c2ccccc12)C(=O)N[C@@H](Cc1c[nH]c2ccc(Cl)cc12)C(=O)N1C[C@H](NC(=O)CN2CCN(CC(=O)O)CCN(CC(=O)O)CCN(CC(=O)O)CC2)C[C@H]1C(=O)N[C@@H](CCC(=O)O)C(=O)N[C@H](CC(C)C)C(=O)N[C@H]1CSCc2cccc(n2)CSC[C@@H](C(N)=O)NC(=O)[C@H](Cc2ccccc2)NC(=O)[C@H](CC(C)C)NC(=O)C2(CCOCC2)NC1=O` [GIP-391, Ac-Asp-Trp-5Clw-Tap (DOTA)-Glu-leu-[Cys(2Lut)-Thp-Leu-Phe-Cys]-NH2] (Ac-DW[Trp(5-Cl)][Pro(trans-4-NH2)](DOTA)E[dL]C[Thp]LFC-NH2; linker 7-11 via Pyridine(2,6-diCH2)), for which the IC50 is 10 to 79.4 nM. Regarding `CC[C@H](C)[C@@H]1NC(=O)[C@H](CC(C)C)NC(=O)C2(CCN(C(=O)CN3CCN(CC(=O)O)CCN(CC(=O)O)CCN(CC(=O)O)CC3)CC2)NC(=O)[C@@H](NC(=O)[C@@H](CC(C)C)NC(=O)[C@H](CCC(=O)O)NC(=O)[C@@H]2C[C@@H](O)CN2C(=O)[C@H](Cc2c[nH]c3ccc(Cl)cc23)NC(=O)[C@H](Cc2ccccc2Cl)NC(=O)[C@H](CC(=O)O)NC(C)=O)CSCc2cccc(n2)CSC[C@@H](C(N)=O)NC1=O` [GIP-392, Ac-Asp-Ocf-5Clw-Hyp-Glu-leu-[Cys(2Lut)-Apc(DOTA)-Leu-Ile-Cys]-NH2] (Ac-D[Phe(2-Cl)][Trp(5-Cl)][Hyp]E[dL]C[Api](DOTA)LIC-NH2; linker 7-11 via Pyridine(2,6-diCH2)), the IC50 was 10 to 79.4 nM. For the molecule `CC(=O)N[C@@H](CC(=O)O)C(=O)N[C@@H](Cc1c[nH]c2ccccc12)C(=O)N[C@@H](Cc1c[nH]c2ccc(Cl)cc12)C(=O)N1C[C@H](O)C[C@H]1C(=O)N[C@@H](CCC(=O)O)C(=O)N[C@H](CC(C)C)C(=O)N[C@H]1CSCc2cccc(n2)CSC[C@@H](C(N)=O)NC(=O)[C@H](Cc2ccccc2)NC(=O)[C@H](CC(C)C)NC(=O)C2(CCN(C(=O)CN3CCN(CC(=O)O)CCN(CC(=O)O)CCN(CC(=O)O)CC3)CC2)NC1=O` [GIP-393, Ac-Asp-Trp-5Clw-Hyp-Glu-leu-[Cys(2Lut)-Apc(DOTA)-Leu-Phe-Cys]-NH2] (Ac-DW[Trp(5-Cl)][Hyp]E[dL]C[Api](DOTA)LFC-NH2; linker 7-11 via Pyridine(2,6-diCH2)), the IC50 was 10 to 79.4 nM. For `CC[C@H](C)[C@@H]1NC(=O)[C@H](CC(C)C)NC(=O)C(C)(C)NC(=O)[C@@H](NC(=O)[C@H](CCC(C)C)NC(=O)[C@H](CCC(=O)O)NC(=O)[C@@H]2C[C@@H](NC(=O)CN3CCN(CC(=O)O)CCN(CC(=O)O)CCN(CC(=O)O)CC3)CN2C(=O)[C@H](Cc2cccc3ccccc23)NC(=O)[C@H](Cc2c[nH]c3ccccc23)NC(=O)[C@H](CC(=O)O)NC(C)=O)CSCc2cccc(c2)CSC[C@@H](C(N)=O)NC1=O` [GIP-394, Ac-Asp-Trp-1Ni-Tap(DOTA)-Glu-Hle-[Cys(3MeBn)-Aib-Leu-Ile-Cys]-NH2] (Ac-DW[1Nal][Pro(trans-4-NH2)](DOTA)E[hLeu]C[Aib]LIC-NH2; linker 7-11 via mXylylene) the value was 10 to 79.4 nM; for `CC[C@H](C)[C@@H]1NC(=O)[C@H](CC(C)C)NC(=O)C2(CCOCC2)NC(=O)[C@@H](NC(=O)[C@@H](CC(C)C)NC(=O)[C@H](Cc2ccccc2)NC(=O)[C@@H]2C[C@@H](O)CN2C(=O)[C@H](Cc2c[nH]c3ccc(Cl)cc23)NC(=O)[C@H](Cc2c[nH]c3ccccc23)NC(=O)[C@H](CC(=O)O)NC(C)=O)CSCc2cccc(n2)CSC[C@@H](C(N)=O)NC1=O` [GIP-396, Ac-Asp-Trp-5Clw-Hyp-Phe-leu-[Cys(2Lut)-Thp-Leu-Ile-Cys]-NH2] (Ac-DW[Trp(5-Cl)][Hyp]F[dL]C[Thp]LIC-NH2; linker 7-11 via Pyridine(2,6-diCH2)), 10 to 79.4 nM; for `CC[C@H](C)[C@@H]1NC(=O)[C@H](CC(C)C)NC(=O)C2(CCOCC2)NC(=O)[C@@H](NC(=O)[C@@H](CC(C)C)NC(=O)[C@H](Cc2c[nH]c3ccccc23)NC(=O)[C@@H]2C[C@@H](O)CN2C(=O)[C@H](Cc2c[nH]c3ccc(Cl)cc23)NC(=O)[C@H](Cc2c[nH]c3ccccc23)NC(=O)[C@H](CC(=O)O)NC(C)=O)CSCc2cccc(n2)CSC[C@@H](C(N)=O)NC1=O` [GIP-397, Ac-Asp-Trp-5Clw-Hyp-Trp-leu-[Cys(2Lut)-Thp-Leu-Ile-Cys]-NH2] (Ac-DW[Trp(5-Cl)][Hyp]W[dL]C[Thp]LIC-NH2; linker 7-11 via Pyridine(2,6-diCH2)), 10 to 79.4 nM.

Regarding `CC[C@H](C)[C@@H]1NC(=O)[C@H](CC(C)C)NC(=O)C2(CCOCC2)NC(=O)[C@@H](NC(=O)[C@@H](CC(C)C)NC(=O)[C@@H]2CCCN2C(=O)[C@@H]2C[C@@H](O)CN2C(=O)[C@H](Cc2c[nH]c3ccc(Cl)cc23)NC(=O)[C@H](Cc2c[nH]c3ccccc23)NC(=O)[C@H](CC(=O)O)NC(C)=O)CSCc2cccc(n2)CSC[C@@H](C(N)=O)NC1=O` [GIP-398, Ac-Asp-Trp-5Clw-Hyp-Pro-leu-[Cys(2Lut)-Thp-Leu-Ile-Cys]-NH2] (Ac-DW[Trp(5-Cl)][Hyp]P[dL]C[Thp]LIC-NH2; linker 7-11 via Pyridine(2,6-diCH2)), the IC50 is 10 to 79.4 nM.

On to `CC[C@H](C)[C@@H]1NC(=O)[C@H](CC(C)C)NC(=O)C2(CCOCC2)NC(=O)[C@@H](NC(=O)[C@@H](CC(C)C)NC(=O)[C@H](CCC(=O)O)NC(=O)[C@@H]2C[C@@H](O)CN2C(=O)[C@H](Cc2c[nH]c3ccc(Cl)cc23)NC(=O)[C@H](Cc2ccccc2Cl)NC(=O)[C@H](CC(=O)O)NC(C)=O)CSCc2cccc(n2)CSC[C@@H](C(=O)N[C@H](CCCCNC(=O)CN2CCN(CC(=O)O)CCN(CC(=O)O)CCN(CC(=O)O)CC2)C(N)=O)NC1=O` [GIP-399, Ac-Asp-Ocf-5Clw-Hyp-Glu-leu-[Cys(2Lut)-Thp-Leu-Ile-Cys]-lys(DOT A)-NH2] (Ac-D[Phe(2-Cl)][Trp(5-Cl)][Hyp]E[dL]C[Thp]LIC[dK](DOTA)-NH2; linker 7-11 via Pyridine(2,6-diCH2)), for which the IC50 was 100 to 794 nM. For `CC[C@H](C)[C@@H]1NC(=O)[C@H](CC(C)C)NC(=O)C2(CCN(C(=O)CN3CCN(CC(=O)O)CCN(CC(=O)O)CCN(CC(=O)O)CC3)CC2)NC(=O)[C@@H](NC(=O)[C@H](CCC(C)C)NC(=O)[C@H](CCC(=O)O)NC(=O)[C@@H]2CCCN2C(=O)[C@H](Cc2cccc3ccccc23)NC(=O)[C@H](Cc2c[nH]c3ccccc23)NC(=O)[C@H](CC(=O)O)NC(C)=O)CSCc2cccc(c2)CSC[C@@H](C(N)=O)NC1=O` [GIP-400, Ac-Asp-Trp-1Ni-Pro-Glu-Hle-[Cys(3MeBn)-Apc(DOTA)-Leu-Ile-Cys]-NH2] (Ac-DW[1Nal]PE[hLeu]C[Api](DOTA)LIC-NH2; linker 7-11 via mXylylene) the value was 100 to 794 nM.
